Measured values: PubChem BioAssay (NCI)
Values joined by “and” are separate entries in the source; they are usually repeats but may differ in a detail not shown here. Equal values may be shown once.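 Each compound was tested at five concentrations against cells in 96-well plates for 48 hours. Abbreviation: GI50, concentration required for 50% inhibition of growth. TGI denotes the concentration required for complete inhibition of growth.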

Legend:
Assay in all cases: NCI-60 cell line screen, 48 h
786-0 renal = tested on: 786-0 renal
HCC-2998 colon = tested on: HCC-2998 colon
LOX IMVI melanoma = tested on: LOX IMVI melanoma
RPMI-8226 leukemia = tested on: RPMI-8226 leukemia
RXF 393 renal = tested on: RXF 393 renal
SNB-19 CNS = tested on: SNB-19 CNS
UACC-62 melanoma = tested on: UACC-62 melanoma
A498 renal = tested on: A498 renal

Compound	GI50 (786-0 renal)	TGI (786-0 renal)	GI50 (HCC-2998 colon)	TGI (HCC-2998 colon)	GI50 (LOX IMVI melanoma)	TGI (LOX IMVI melanoma)	GI50 (RPMI-8226 leukemia)	TGI (RPMI-8226 leukemia)	GI50 (RXF 393 renal)	TGI (RXF 393 renal)	GI50 (SNB-19 CNS) [µM]	TGI (SNB-19 CNS) [µM]	GI50 (UACC-62 melanoma)	TGI (UACC-62 melanoma) [µM]	TGI (A498 renal)	GI50 (A498 renal)
N#CCCN1C/C(=C/c2ccc(Br)cc2)C(=O)/C(=C/c2ccc(Br)cc2)C1	1.38 µM	2.84 µM	1.85 µM	3.31 µM	0.512 µM	1.76 µM	0.262 µM	> 100 µM	1.55 µM	3.04 µM	1.59	3.76	1.93 µM	4.52	–	–
COC(=O)C1C(O)C(C(=O)OC)C(C)N(C)C1C (stereo unspecified)	–	> 100 µM	–	–	–	> 100 µM	–	> 100 µM	–	> 100 µM	–	> 100	–	> 100	> 100 µM	–
Cn1cc(-c2csc(-c3cn(CCCCN4CCCCC4)c4ccccc34)n2)c2cccnc21	1.64 µM	3.05 µM	1.85 µM	3.41 µM	1.71 µM	3.21 µM	–	–	1.48 µM	2.99 µM	1.64	3.07	1.79 µM	3.27	3 µM	1.61 µM
O=C(NCc1ccc(Cn2c(=O)sn(-c3ccccc3)c2=O)cc1)OCc1ccc2cccc(O)c2n1	0.484 µM	1.08 µM	1.81 µM	3.51 µM	0.273 µM	0.955 µM	0.37 µM	4.97 µM	0.457 µM	1.71 µM	1.49	2.84	1.17 µM	2.44	1.89 µM	0.382 µM
O=C1Nc2ccccc2/C1=C1\CCc2cc(O)ccc21	19.2 µM	> 25 µM	9.41 µM	> 25 µM	6.5 µM	> 25 µM	9.71 µM	> 25 µM	9.85 µM	> 25 µM	13.2	> 25	7.73 µM	> 25	17.8 µM	5.65 µM
COC(=O)C1=COC(C)C2CN3CCc4c([nH]c5ccccc45)C3CC12 (stereo unspecified)	18.8 µM and 54.8 µM	40.2 µM and > 100 µM	20.6 µM and > 100 µM	44.7 µM and > 100 µM	18.5 µM and > 100 µM	45.5 µM and > 100 µM	14.6 µM and 69 µM	56 µM and > 100 µM	17.3 µM and > 100 µM	69.9 µM and > 100 µM	–	> 100	24.4 µM and > 100 µM	> 100	49.7 µM and > 100 µM	21.1 µM and 74.9 µM
COc1cc(/C=C\c2cc(OC)c(OC)c(OC)c2)cc(N/C=C\C(=O)c2c[nH]c3ccccc23)c1OC	2.04 µM	4.14 µM	3.34 µM	10.5 µM	–	–	0.627 µM	2.93 µM	1.69 µM	3.38 µM	3.92	24.4	1.39 µM	3.33	12 µM	1.32 µM
CCCC/C(=C\C1=C(C)C(=O)C(OC)=C(OC)C1=O)C(=O)O	> 100 µM	> 100 µM	> 100 µM	> 100 µM	> 100 µM	> 100 µM	> 100 µM	> 100 µM	> 100 µM	> 100 µM	> 100	> 100	> 100 µM	> 100	> 100 µM	> 100 µM
COc1ccc(C(CC(=O)c2ccc3c(c2)OCO3)c2c(O)c3ccccc3oc2=O)cc1OC (stereo unspecified)	–	> 100 µM	–	> 100 µM	–	> 100 µM	–	> 100 µM	–	> 100 µM	–	> 100	–	> 100	> 100 µM	–
Nc1ccccc1O.O.O=C(O)C1[O][Sb][O]C1C(=O)O (stereo unspecified)	10.5 µM	26 µM	17.9 µM	47.7 µM	8.59 µM	29.9 µM	1.51 µM	6.56 µM	6.35 µM	16.7 µM	55.5	> 100	15.1 µM	30.3	> 100 µM	> 90.3 µM
CCC/C=C/C=C/C1CC(O)C(O)C(=O)C1CO (stereo unspecified)	–	> 100 µM	–	> 100 µM	–	> 100 µM	–	> 100 µM	–	> 100 µM	–	> 100	–	> 100	–	–
COc1cc2c(cc1O)CCN[C@]21CS[C@@H]2c3c(OC(C)=O)c(C)c4c(c3[C@H](COC1=O)N1[C@@H]2[C@H]2c3c(cc(C)c(OC)c3O)C[C@@H]([C@@H]1O)N2C)OCO4	–	0.948 µM	0.00352 µM	0.00652 µM	–	0.262 µM	–	0.00529 µM	–	0.00401 µM	–	1.39	–	0.00403	–	–
CCOCN1COCN(C)C1=O	–	> 100 µM	–	> 100 µM	–	> 100 µM	–	> 100 µM	–	–	–	> 100	–	> 100	> 100 µM	–
O=C(O)c1cccc(COc2ccc([N+](=O)[O-])cc2Cl)c1	> 100 µM	> 100 µM	> 100 µM	> 100 µM	94 µM	> 100 µM	> 100 µM	> 100 µM	–	–	> 100	> 100	> 100 µM	> 100	–	–
ClCCN(CCCl)c1ccc(CNc2ccccc2)cc1	5.11 µM	36 µM	–	–	4.52 µM	26 µM	12.9 µM	69.4 µM	–	–	19	> 100	–	–	24.3 µM	6.32 µM
Cc1cc(Nc2nc(-c3cn(-c4ccc(Cl)cc4)nn3)nc3ccccc23)n[nH]1	15.1 µM	> 50 µM	36.4 µM	> 50 µM	9.7 µM	> 50 µM	19.6 µM	> 50 µM	5.09 µM	26.1 µM	> 50	> 50	–	–	> 50 µM	> 50 µM
COc1ccc(C(=O)c2cc(OC)c(OC)c(OC)c2)cc1OC	–	> 100 µM	–	5.79 µM	–	> 100 µM	–	> 100 µM	–	6.3 µM	–	–	–	> 100	–	–
COC(c1ccc(C(C)(C)C)cc1)(c1ccc(C(C)(C)C)cc1)c1ccc(C(C)(C)C)cc1	–	> 100 µM	–	> 100 µM	–	> 100 µM	–	> 100 µM	–	–	–	> 100	–	> 100	> 100 µM	–
O=C(/C(=C\c1c(-c2ccccc2)[nH]c2ccccc12)S(=O)(=O)c1ccccc1)c1ccccc1	> 100 µM	> 100 µM	> 100 µM	> 100 µM	74.7 µM	> 100 µM	7.61 µM	> 100 µM	97.1 µM	> 100 µM	> 100	> 100	8.95 µM	> 100	–	–
COC(=O)c1cc2c(o1)-c1nccc3c1c(nc1ccccc13)C2=O	2.93 µM	14 µM	–	–	3.61 µM	16.2 µM	2.03 µM	18 µM	–	–	2.28	6.94	–	–	39.1 µM	18 µM
